PMC11091879, “Inhibitors of the Thioesterase Activity of Mycobacterium tuberculosis Pks13 Discovered Using DNA-Encoded Chemical Library Screening” (ACS Infectious Diseases, 2024)
Values after ≈ are worked out from the molar mass of the structure shown. Where two headings read alike, the source gives them in different places.

Columns and labels:
Pks13-TE = Pks13-TE (Mycobacterium tuberculosis, UniProt I6X8D2); experiment: biochemical; assay type: binding
WT H37Rv = experiment: microbe, parasite or virus in culture; assay type: cell-based, Mycobacterium tuberculosis; details: Mycobacterium tuberculosis, H37RV
[1] = system: pks13-TetON +ATc (Pks13-hypermorph); assay type: cell-based, Mycobacterium tuberculosis
[2] = system: pks13-TetON -ATc (hypomorph); assay type: cell-based, Mycobacterium tuberculosis
Mtb H37Rv = system: Mtb H37Rv; set-up: species or system Mycobacterium tuberculosis; details: in vivo, po
[3] = in vivo, po
in vivo = details: female, CD-1, mouse
in vitro [4] = details: mouse, plasma
in vitro [5] = details: human, plasma
in vitro [6] = details: mouse, microsomes
[7] = Mouse pharmacokinetics studies; details: female, CD-1, mouse, plasma
[8] = Metabolic stability in mouse liver microsomes (MLMs)

Chain of Pks13-TE (I6X8D2 1451-1733 limits assumed): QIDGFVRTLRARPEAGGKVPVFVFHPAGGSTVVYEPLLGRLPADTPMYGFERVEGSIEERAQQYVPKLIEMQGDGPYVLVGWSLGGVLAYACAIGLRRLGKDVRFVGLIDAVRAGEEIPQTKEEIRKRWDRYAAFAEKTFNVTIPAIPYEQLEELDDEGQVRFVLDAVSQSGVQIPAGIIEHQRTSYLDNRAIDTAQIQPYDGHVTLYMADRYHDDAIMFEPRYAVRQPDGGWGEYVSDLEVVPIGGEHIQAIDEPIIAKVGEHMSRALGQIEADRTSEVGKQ

For `COc1ccc(OC)c(-c2ccc(-c3cn(CCc4ccc(C(=O)N(C)C)cc4)nn3)cn2)c1` [X20404], the IC50 (Pks13-TE; IC50 (enzyme inhibition)) was 0.4 µM, the IC50 (Pks13-TE; IC50 (uM)) was 0.43 µM and the MIC (WT H37Rv; read-out: MIC (Mtb inhibition)) was 0.25 µM (≈ 0.114 µg/mL). The MIC (WT H37Rv; read-out: MIC (whole cell activity)) was 0.25 µM (≈ 0.114 µg/mL), the MIC (WT H37Rv; read-out: WT H37Rv MIC (uM)) was 0.25 µM (≈ 0.114 µg/mL) and the “Hypermorph MIC fold shift (+ATc/WT)” value [1] was 2.3 fold. For the same compound, the “Hypomorph MIC fold shift (WT/-ATc)” value [2] was 2.9 fold, the “reduction of the lung CFU compared to untreated control” value (Mtb H37Rv; 100 mg/kg) was “approximately 0.4 log10” and the “reduction of the lung CFU compared to untreated control” value (Mtb H37Rv; 200 mg/kg) was 0.8 log10. For the same compound, the “fold higher maximum concentration in blood compared to three other compounds” value ([3]; female, CD-1, mouse, 25 mg/kg) was roughly 10 fold, the “plasma concentrations relative to MIC” value ([3]; mouse, 200 mg/kg) was “above the MIC” and the Vd (in vivo) was 0.3 L/kg. It also gave a bioavailability (in vivo) of 8%, a clearance (in vivo) of 6.2 mL/min/kg and a fraction unbound at 4 h, 10000 ng/mL (in vitro [4]; mouse PPB (%)) of 0.023. The fraction unbound at 4 h, 10000 ng/mL (in vitro [4]; plasma protein binding) was 0.02, the fraction unbound at 4 h, 10000 ng/mL (in vitro [5]) was 0.044 and the microsomal CLint at 5 μM (in vitro [6]) was 26.2 µL/min/mg. It also gave a half-life ([7]; intravenous, 5 mg/kg) of 36 min, an AUC(0-t) ([7]; iv, 5 mg/kg) of 13500 ng·h/mL and an AUC(0-t) ([7]; po, 25 mg/kg) of 3700 ng·h/mL. For the same compound, the AUC(0-t) ([7]; po, 50 mg/kg) was 14200 ng·h/mL, the AUC(0-t) ([7]; po, 100 mg/kg) was 33300 ng·h/mL and the AUC(0-t) ([7]; po, 200 mg/kg) was 98100 ng·h/mL. The half-life at 5 μM [8] was 26.8 min.
